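1) Cells in 96-well plates. 2) Compound, 48 h, 5 concentrations. 3) Linear interpolation between surrounding doses. 4) Unreached endpoint = highest concentration. Abbreviation: GI50, concentration required for 50% inhibition of growth.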 The source made the active and inactive calls. No stated cut-off is given here; in the data, active = GI50 up to about 1.1 µM and inactive = higher.
What was measured:
Test in all cases: NCI-60 cell line screen, 48 h
DLD-1 = test system: DLD-1
LXFL 529 = test system: LXFL 529
XF498 = test system: XF498
M19-MEL = test system: M19-MEL
DMS-114 = test system: DMS-114
SNB-78 = test system: SNB-78
HOP-18 = test system: HOP-18
DMS-273 = test system: DMS-273
RXF 631 = test system: RXF 631

Row | SMILES | GI50 (DLD-1) | GI50 (LXFL 529) | GI50 (XF498) | GI50 (M19-MEL) | GI50 (DMS-114) | GI50 (SNB-78) | GI50 (HOP-18) | GI50 (DMS-273) | GI50 (RXF 631)
1 | COc1cc2cccc(/N=C/c3c(Br)ccc(OC)c3OC(C)C)c2cc1OC | 23.8 µM (inactive) | 26.8 µM (inactive) | 56.9 µM (inactive) | 30.1 µM (inactive) | 25.6 µM (inactive) | 38.6 µM (inactive) |  |  | 
2 | Cc1cc(N(CCC#N)CCC#N)ccc1/C=N\c1ccc(C(=O)NN2C(=O)/C(=C/c3ccc(N(CCC#N)CCC#N)cc3)N=C2c2cc([N+](=O)[O-])ccc2Cl)cc1 | 78.9 µM (inactive) | 71.6 µM (inactive) | 61.9 µM (inactive) | > 100 µM (inactive) | > 100 µM (inactive) | > 100 µM (inactive) | 5.4 µM (inactive) | 47.6 µM (inactive) | > 100 µM (inactive)
3 | CC(C)(C)CC(C)(C)c1cc2c(O)c(c1)Cc1cc(C(C)(C)CC(C)(C)C)cc(c1O)Cc1cc(C(C)(C)CC(C)(C)C)cc(c1O)Cc1cc(C(C)(C)CC(C)(C)C)cc(c1O)Cc1cc(C(C)(C)CC(C)(C)C)cc(c1O)Cc1cc(C(C)(C)CC(C)(C)C)cc(c1O)Cc1cc(C(C)(C)CC(C)(C)C)cc(c1O)Cc1cc(C(C)(C)CC(C)(C)C)cc(c1O)C2 | > 100 µM (inactive) | > 100 µM (inactive) | > 100 µM (inactive) | > 100 µM (inactive) |  | > 100 µM (inactive) |  | > 100 µM (inactive) | 
4 | O=C(c1cc(=O)c2ccc(O)cc2o1)c1ccc(Cl)cc1Cl | 17.4 µM (inactive) |  | 26.8 µM (inactive) | 13.8 µM (inactive) | 3.92 µM (inactive) | 31.3 µM (inactive) | 29.4 µM (inactive) | 3.89 µM (inactive) | 11.1 µM (inactive)
5 | O=C(CC1(O)C(=O)Nc2ccccc21)c1ccccc1O (stereo not drawn) | > 100 µM (inactive) | > 100 µM (inactive) | > 100 µM (inactive) | > 100 µM (inactive) | > 100 µM (inactive) | > 100 µM (inactive) |  | > 100 µM (inactive) | > 100 µM (inactive)
6 | C[C@@H](O)CCC(=O)c1ccoc1 | > 100 µM (inactive) | > 100 µM (inactive) |  | > 100 µM (inactive) | > 100 µM (inactive) | > 100 µM (inactive) | > 100 µM (inactive) | > 100 µM (inactive) | 
7 | O=C(OCc1ccccc1)N1N=NC2C1C1CC(OCc3ccccc3)(OCc3ccccc3)C2O1 (stereo not drawn) | > 100 µM (inactive) | > 100 µM (inactive) | > 100 µM (inactive) | > 100 µM (inactive) |  | > 100 µM (inactive) | > 100 µM (inactive) | > 100 µM (inactive) | 
8 | O/N=C1/C(=C/c2ccccc2)CCCC1C(NO)c1ccccc1 (stereo not drawn) |  | 49.1 µM (inactive) | 28.1 µM (inactive) | 68.4 µM (inactive) | 30.7 µM (inactive) | 50.6 µM (inactive) | > 100 µM (inactive) | > 100 µM (inactive) | > 100 µM (inactive)
9 | COc1ccc(C(=O)C2CCC(C(=O)O)C2)cc1 (stereo not drawn) | > 100 µM (inactive) | > 100 µM (inactive) |  | > 100 µM (inactive) | > 100 µM (inactive) | > 100 µM (inactive) |  | > 100 µM (inactive) | 
10 | CC(C)(C)c1cc2c(OP(c3ccccc3)c3ccccc3)c(c1)Cc1cc(C(C)(C)C)cc(c1OP(c1ccccc1)c1ccccc1)Cc1cc(C(C)(C)C)cc(c1OP(c1ccccc1)c1ccccc1)Cc1cc(C(C)(C)C)cc(c1OP(c1ccccc1)c1ccccc1)C2 | > 5 µM (inactive) | > 5 µM (inactive) |  | > 5 µM (inactive) | > 5 µM (inactive) | > 5 µM (inactive) | > 5 µM (inactive) | > 5 µM (inactive) | 
11 | CC12OOC(c3ccccc31)c1c2ccc2ccccc12 (stereo not drawn) | 1.45 µM (inactive) | 2.04 µM (inactive) |  | 3.13 µM (inactive) | 0.885 µM (active) | 4.11 µM (inactive) | 1.86 µM (inactive) | 8.69 µM (inactive) | 8.04 µM (inactive)
12 | CC1=CC(C)(c2c[nH]c3ccccc23)CC(C)(C)c2c1[nH]c1ccccc21 (stereo not drawn) | 13.7 µM (inactive) | 30.1 µM (inactive) | 20.6 µM (inactive) | 19.7 µM (inactive) | 14.9 µM (inactive) | 28.2 µM (inactive) | > 100 µM (inactive) |  | 14.5 µM (inactive)
